Test results taken from the supplement of paper PMC10307832.

Experiments:
Test in all cases: relative viability (nuclei count vs DMSO), 5 days (fraction); higher = more cells survive
[1] = compound: C[C@]12O[C@H](C[C@]1(O)CO)n1c3ccccc3c3c4c(c5c6ccccc6n2c5c31)CNC4=O [Lestaurtinib] + CC(=O)Nc1cccc(-n2c(=O)n(C3CC3)c(=O)c3c(Nc4ccc(I)cc4F)n(C)c(=O)c(C)c32)c1 [Trametinib] (partner 0.02 µM)
Outline: (§1)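 Dosing by pin tool came one day after lung cancer cell lines were seeded in 1536-well plates, using either one drug or a fixed anchor-drug dose plus five library-drug doses (not always all listed) in √10 steps. After 5 days, nuclei were counted on 4× images. Relative viability is treated-well nuclei count divided by vehicle-well nuclei count, and values are medians of duplicate plates.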

[2] = compound: C1/C(=C\C2=CC=CS2)/C(=O)/C(=C/C3=CC=CS3)/C1 + CCNC(=O)c1noc(-c2cc(C(C)C)c(O)cc2O)c1-c1ccc(CN2CCOCC2)cc1 [Luminespib] (partner 0.01 µM)
Outline: as §1

[3] = compound: C1/C(=C\C2=CC=CS2)/C(=O)/C(=C/C3=CC=CS3)/C1 + CC(C)C[C@H](NC(=O)[C@H](Cc1ccccc1)NC(=O)c1cnccn1)B(O)O [Bortezomib] (partner 0.002 µM)
Outline: as §1

[4] = compound: C1/C(=C\C2=CC=CS2)/C(=O)/C(=C/C3=CC=CS3)/C1 + CS(=O)(=O)N1CCN(Cc2cc3nc(-c4cccc5[nH]ncc45)nc(N4CCOCC4)c3s2)CC1 [Pictilisib] (partner 1 µM)
Outline: as §1

Cell Line	relative viability ([1]; first compound 0.005 µM)	relative viability ([1]; first compound 0.01581 µM)	relative viability ([1]; first compound 0.05 µM)	relative viability ([1]; first compound 0.1581 µM)	relative viability ([1]; first compound 0.5 µM)	relative viability ([2]; first compound 0.2 µM)	relative viability ([2]; first compound 0.6325 µM)	relative viability ([2]; first compound 2 µM)	relative viability ([2]; first compound 6.325 µM)	relative viability ([2]; first compound 20 µM)	relative viability ([3]; first compound 0.2 µM)	relative viability ([3]; first compound 0.6325 µM)	relative viability ([3]; first compound 2 µM)	relative viability ([3]; first compound 6.325 µM)	relative viability ([3]; first compound 20 µM)	relative viability ([4]; first compound 0.2 µM)	relative viability ([4]; first compound 0.6325 µM)	relative viability ([4]; first compound 2 µM)	relative viability ([4]; first compound 6.325 µM)	relative viability ([4]; first compound 20 µM)
PC-3 [JPC-3]	0.766	0.709	0.779	0.575	0.585	0.807	0.645	0.689	0.556	0.659	0.845	0.956	0.88	0.76	0.884	0.65	0.765	0.798	0.629	0.719
CAL-12T	0.364	0.337	0.314	0.288	0.23	0.374	0.316	0.404	0.444	0.364	1.1	1.09	1.18	0.976	1.04	0.381	0.464	0.578	0.352	0.377
COR-L 105	0.408	0.419	0.446	0.347	0.341	0.97	0.502	0.808	–	0.586	1.02	0.73	1.03	0.678	0.662	0.409	0.364	0.386	0.327	0.356
NCI-H2347	0.288	0.305	0.299	0.278	0.301	0.405	0.959	0.381	–	0.466	0.847	1	1.04	0.831	1.04	0.652	0.63	0.928	0.889	0.446
NCI-H2126	0.625	0.6	0.624	0.52	0.578	0.952	0.84	0.963	0.804	0.867	1.16	1.1	1.21	0.994	1.1	0.511	0.477	0.505	0.485	0.488
NCI-H838	0.559	0.497	0.486	0.333	0.0966	0.387	0.253	0.309	0.222	0.281	0.864	0.787	0.912	0.655	0.782	0.456	0.511	0.416	0.413	0.436
A549	–	–	–	–	–	–	–	–	–	–	–	–	–	–	–	0.486	0.511	0.447	–	0.456
NCI-H2342	0.836	0.817	0.841	0.849	0.971	0.761	0.654	0.767	0.615	0.8	–	–	–	–	–	–	–	–	–	–
NCI-H1623	–	–	–	–	–	0.672	0.601	0.528	0.372	0.511	–	–	–	–	–	–	–	–	–	–
SK-LU-1	0.452	0.476	0.415	0.384	0.318	0.204	0.191	0.202	0.181	0.214	1.33	1.07	1.68	1.13	1.28	0.583	0.709	0.649	0.56	0.665
